Patent US7718190B2, “Self forming, thermodynamically stable liposomes and their applications” (priority 2000, dated 2010)

Experiments:
[1] = Dissolution of compounds in PEG-12 Glyceryl Dioleate; format: physicochemical; conditions: for Dissolution in PEG-12 Glyceryl Dioleate (observation): before addition of water
Procedure: It will be appreciated that, while liposomes form spontaneously at the temperature of formation, cooling of liposomes after formation results in liposomes in trapped kinetic states. To minimize distortions in liposome structure upon such cooling, sterols such as cholesterol may be mixed with the lipid before liposome formation. It has been observed that cholesterol may be dissolved in PEG-12 GDO at up to about 10 percent by weight.
Methotrexate (Sigma) was dissolved in PEG-12 Glyceryl Dioleate and gently mixed for about 5 minutes. […] Deionized water was slowly added to the solution and gently mixed. The resultant mixture was a yellow, opaque solution.
Tretinoin (all-trans retinoic acid), 6 mg, was dissolved in 500 ul of PEG-12 Glyceryl Dioleate. […] Distilled water, 4.5 ml, was added to the mixture and gently mixed. This yielded a concentration of […]. […] This solution can easily be incorporated into a cream, gel or lotion dosage form.

[2] = Spontaneous liposome formation of single lipids mixed with aqueous solution; format: physicochemical
Procedure: Lipids were tested at 2 weight percent in aqueous solution. Note that GDL means glycerol dilaurate, GDO means glycerol dioleate, GDM means glycerol dimyristate, GDP means glycerol dipalmitate, and GDS means glycerol distearate. For each lipid, the number after “PEG” indicates the numbers of C2H4O subunits in the PEG chain. The unsaturated dioleate lipids have similar packing parameters to the saturated dimyristate lipids.
Single lipids were tested for their ability to spontaneously form liposomes when mixed with an aqueous solution. PEG-12 GDO was obtained from Global 7 (New Jersey). All other lipids were synthesized for the experiment. For each experiment, water and lipid were separately equilibrated at the appropriate temperature. Two weight percent lipid was added to the aqueous solution, and the solution was analyzed for the presence of liposomes by optical light microscopy, cryo TEM, freeze fracture TEM, or hot stage microscopy.

## CN(Cc1cnc2nc(N)nc(N)c2n1)c1ccc(C(=O)N[C@@H](CCC(=O)O)C(=O)O)cc1 [Methotrexate]
[1]
  Dissolution in PEG-12 Glyceryl Dioleate (observation): clear solution

## CC1=C(/C=C/C(C)=C/C=C/C(C)=C/C(=O)O)C(C)(C)CCC1 [Tretinoin]
[1]
  Dissolution in PEG-12 Glyceryl Dioleate (observation): Dissolution was complete

## CC(C)CCC[C@@H](C)[C@H]1CC[C@H]2[C@@H]3CC=C4C[C@@H](O)CC[C@]4(C)[C@H]3CC[C@]12C [cholesterol]
[1]; in PEG-12 GDO
  Amount dissolved in PEG-12 GDO: up to 10 percent by weight

## PEG-12 Glyceryl Dioleate [PEG-12 GDO]
[2]; 2 weight percent lipid in aqueous solution, 20° C.
  Spontaneous Liposomes at 20° C.: YES
[2]; 2 weight percent lipid in aqueous solution, 37° C.
  Spontaneous Liposomes at 37° C.: YES
[2]; 2 weight percent lipid in aqueous solution, 60° C.
  Spontaneous Liposomes at 60° C.: YES
[2]; all temperatures tested (20, 37, 60° C.)
  Spontaneous liposome formation: spontaneously forms liposomes at all temperatures tested
